# Measurements reported in US8957106B2, “Iminosugar treatment of tumors” (The Chancellor, Masters and Scholars of the University of …, priority 2007, dated 2015).
# How the values were obtained:
# [1] = test system: SKMel28 melanoma cells; assay: MTS cell viability assay, SKMel28; assay type: cell-based; settings: Homo sapiens, SK-MEL-28, SKMel28, 24 h, read-out: IC50 (concentration reducing number of viable cells by 50%)
# Protocol: (§1) Cells were cultured at indicated densities for 24 h, medium was removed and the incubation was continued in a fresh culture medium containing various GC2 or DTIC concentrations. In control experiments, cells were grown in a culture medium containing GC2 buffer.
# (§2) The standard […] (MTS)-3-(4,5-dimethylthiazol-2-yl)-5-(3-carboxymethoxyphenyl)-2-(4-sulphophenyl)-2H-tetrazolium inner salt solution assay was performed in order to examine the cytotoxic/cytostatic effect of GC2 on melanoma cells. Briefly, 7.5×10^3 cells were seeded in 96-well microtiter plates (Nunc). After an overnight incubation, serial dilutions of GC2 or DTIC were added in triplicate to a final volume of 100 μl. The blank was represented by a culture medium without cells containing the highest GC2 or DTIC concentration. After 24 h of incubation 20 μl MTS was added to each well and all samples were incubated for 3 h at 37° C. An absorbance of each well was read at 450 nm in a microplate reader. A percentage of cell viability was calculated considering that 100% cell viability was represented by an absorbance of untreated samples […]. Alternatively, the number of viable cells was determined by Trypan blue exclusion test. Melanoma cells treated with GC2 were trypsinized and cells negative for blue staining (viable cells) were counted using a hemocytometer. […]
# [2] = test system: B16F10 melanoma cells; assay: MTS cell viability assay, B16F10; assay type: cell-based, murine; settings: Mus musculus, B16-F10, B16F10, 24 h, read-out: IC50 (concentration reducing number of viable cells by 50%)
# Protocol: as §1, §2
# [3] = Solubility in solvent mixture; assay type: physicochemical; settings: solvent mixture (GC2 buffer)
# [4] = test system: B16F10 cells; assay: Growth rate by Trypan blue exclusion, drug scheduling and progenies; assay type: cell-based, murine
# Protocol: The standard methanethiosulfonate (MTS)-3-(4,5-dimethylthiazol-2-yl)-5-(3-carboxymethoxyphenyl)-2-(4-sulphophenyl)-2H-tetrazolium inner salt solution assay was performed in order to examine the cytotoxic/cytostatic effect of GC2 on melanoma cells. Briefly, 7.5×10^3 cells were seeded in 96-well microtiter plates (Nunc). After an overnight incubation, serial dilutions of GC2 or DTIC were added in triplicate to a final volume of 100 μl. The blank was represented by a culture medium without cells containing the highest GC2 or DTIC concentration. After 24 h of incubation 20 μl MTS was added to each well and all samples were incubated for 3 h at 37° C. An absorbance of each well was read at 450 nm in a microplate reader. A percentage of cell viability was calculated considering that 100% cell viability was represented by an absorbance of untreated samples (blank absorbance). Alternatively, the number of viable cells was determined by Trypan blue exclusion test. Melanoma cells treated with GC2 were trypsinized and cells negative for blue staining (viable cells) were counted using a hemocytometer.
# In order to be successful, chemotherapy schedule can be set based on a type of targeted cells, a rate, at which the cells divide, and a time, at which a given drug is likely to be effective. Melanoma cells have versatile mechanisms to survive treatments with most chemotherapeutical drugs. Whether a specific scheduling of GC2 therapy is important was investigated by studying how a growth rate of melanoma cells is affected by incubation with a single dose of GC2 for a prolonged time period and with multiple GC2 doses freshly added every 24 h. Because of its high proliferation rate, a metastatic cell line B16F10 was selected for these experiments. The cells were cultured for 72 h under the following conditions: 1) in the absence of GC2 (control sample-C), 2) with a single GC2 dose of 6.0 μM (sample-S), and 3) with multiple GC2 doses of 6.0 μM freshly added every 24 h ([…]). A number of viable cells was determined by Trypan blue exclusion test and a growth rate was calculated in order to estimate an anti-proliferative effect of GC2. Under normal drug-free conditions, B16F10 cells approximately double their number every 24 h (FIG. 4A). Incubation with a single dose of GC2 decreased the growth rate from 2.29 to 1.26 for 24 h incubation and from 7.26 to 3.7 for 72 h incubation. […] Cells treated with GC2 freshly added every 24 h had the lowest growth rate of 2.02.
# Equal numbers of B16F10 cells previously cultured for 72 h 1) without GC2 (C), 2) in the presence of a single GC2 dose of 6 μM (S) or 3) multiple GC2 doses of 6 μM freshly added every 24 h (S*) were further incubated either without GC2 (0 μM) or with a lower GC2 concentration (3 μM). At the end of a 48 h incubation period a number of viable cells was determined by Trypan blue exclusion test and a percentage of cell growth was calculated considering a cell number cultured with 3 μM of GC2 for 48 h to be 100%. Cells cultured with a single dose of GC2 for 72 h followed by 48 h without the drug proliferated at a rate of 99%. The rate decreased to 70% after the additional 48 h incubation of these cells in the presence of 3 μM GC2 (FIG. 4C). […] The lowest growth rate, (5%) was registered for the cells previously exposed to multiple doses of freshly added drug for 72 h and then further grown for 48 h in the presence of 3 μM GC2.
# [5] = test system: MNT-1 cells; assay: Annexin V/PI double labeling, flow cytometry, MNT-1; assay type: cell-based; settings: MNT-1, 6 μM
# Protocol: Apoptosis in GC2-treated melanoma cells was detected using Annexin V and PI double labeling assay, see van Engeland, M., et al., Cytometry, 31, 1-9, 1998. Annexin V/PI labeling was applied to both fluorescence microscopy and flow cytometry following the protocol supplied by the manufacturer. Briefly, for fluorescence microscopy analysis adherent cells (approximately 16×10^4) treated with GC2 were washed with annexin V binding buffer, and incubated with Alexa Fluor® 488 Annexin V (5 μl in 1 ml annexin V binding buffer) for 15 min at RT, in the dark, to which 0.2 μg PI was added. Live cells were washed with annexin V binding buffer and examined by microscopy. For flow cytometric analysis, cells treated with GC2 were harvested by trypsinisation and a number of viable cells was counted. 16×10^4 cells were re-suspended in 0.2 ml annexin V binding buffer and treated in the same were adherent cells. Finally, labeled cells were analyzed with a FACScan™ using CellQuest™ software (Becton Dickinson, San Jose, Calif.).
# Cells cultured under normal conditions for 24 h were further treated for 5 h, 8 h or 24 h with 6 μM of GC2, labeled with annexin V and PI and quantitatively analyzed by flow cytometry for viable, apoptotic and necrotic populations (FIG. 7).
structure (smiles),measurement,setting,value
"CC(=O)O.CCCCCCCCCN1[C@@H](CO)[C@@H](O)[C@H](O)[C@@H]1CCCCCCCC [GC2, (2S,3R,4R,5S)-3,4-dihydroxy-N-nonyl-5-octyl-2 hydroxymethylpyrrolidinium acetate]",IC50,[1],7 to 8 µM
same,IC50,[2],7 to 8 µM
same,solubility,[3],good solubility
same,activity at 3 µM,"[4]; Mus musculus, B16-F10, multiple 6 μM doses 72 h, then 48 h with 3 μM GC2, read-out: growth rate of progenies (% of control growth)",5%
same,activity at 6 µM,"[4]; Mus musculus, B16-F10, single 6 μM dose 72 h, then 48 h without drug, read-out: proliferation rate of progenies (% of control growth)",99%
same,proliferation rate of progenies (% of control growth),"[4]; multiple 6 μM doses 72 h, then 48 h without drug",43%
same,growth rate (ratio of cell number to initial cell number),"[4]; multiple 6.0 μM doses freshly added every 24 h, 72 h, control 7.26",2.02
same,proliferation rate of progenies (% of control growth),"[4]; single 6 μM dose 72 h, then 48 h with 3 μM GC2",70%
same,growth rate (ratio of cell number to initial cell number),"[4]; single dose 6.0 μM, 24 h incubation, control 2.29",1.26
same,growth rate (ratio of cell number to initial cell number),"[4]; single dose 6.0 μM, 72 h incubation, control 7.26",3.7
same,increase of apoptotic population versus control,[5]; 5 h,doubled
same,increase of necrotic fraction versus control (factor),[5]; 5 h,2.3
same,apoptotic population,"[5]; 5 h, control 3.29%",6.94%
same,necrotic fraction,"[5]; 5 h, control 4.24%",10.07%
same,increase of apoptotic population versus control (times),[5]; 8 h,3.5
same,increase of necrotic fraction versus control (factor),[5]; 8 h,2.9
same,apoptotic population,"[5]; 8 h, control 4.32%",15.49%
same,necrotic fraction,"[5]; 8 h, control 5.84%",17.25%
same,increase of apoptotic population versus control (times),[5]; 24 h,7.6
same,increase of necrotic fraction versus control (factor),[5]; 24 h,9.5
same,necrotic fraction,"[5]; 24 h, control 2.07%",19.18%
same,apoptotic population,"[5]; 24 h, control 3.25%",24.86%
